29 compounds from paper PMC8286840, “Identifying SARS-CoV-2 antiviral compounds by screening for small molecule inhibitors of Nsp3 papain-like protease” (Biochemical Journal, 2021) can be followed below.

Assay [1] has as its target T1, SARS-CoV-2 PLpro (nsp3 1564–1878) (Severe acute respiratory syndrome coronavirus 2, UniProt P0DTD1). The experiment in a line: biochemical. Details: FRET-quenched peptide (Pro3) cleavage by PLpro, 10 min pre-incubation, slope over 20 min, normalised to no-compound control. The conditions noted are these: read-out: % of control remaining.
The target of assay [2] is T1, SARS-CoV-2 PLpro (nsp3 1564–1878). The experiment in a line: biochemical. Set-up: FRET-quenched peptide (Pro3) cleavage by PLpro, 10 min pre-incubation, slope over 20 min, normalised to no-compound control. The conditions noted are these: read-out: % of control remaining. This is another data set of the same source.

Molecules are shown by their SMILES. Where a name gives a salt, the structure may show the parent alone. Read-outs that look alike come from different tables or passages of the source.

Consider `Cc1nn(C)c2nc(NNC(=O)Nc3cc(Cl)nc(Cl)c3)cc(C(C)C)c12` [N-(2,6-dichloro-4-pyridinyl)-2-(4-isopropyl-1,3-dimethyl-1H-pyrazolo[3,4-b]pyridin-6-yl)hydrazinecarboxamide], for which the remaining activity at 1.25 µM in assay [1] (Well no.=5923, low concentration screen) stood at 104%. In assay [2] (Well no.=5923, high concentration screen), the remaining activity at 3.75 µM amounted to 100%.
For the compound `COc1cccc(C(=O)NCCN2CCN(c3ccc(Cl)cc3)CC2)c1` [N-(2-[4-(4-Chlorophenyl)piperazin-1-yl]ethyl)-3-methoxybenzamide], in assay [1] (Well no.=232, low concentration screen), the remaining activity at 1.25 µM came to 99.5%. Also, the remaining activity at 3.75 µM in assay [2] (Well no.=232, high concentration screen) is 99.4%.
On to `CCCN(CCC)CC1CCCCN1CCNC(=O)N1c2ccccc2C(=O)Nc2cccnc21` (stereo not drawn) [N-(2-{2-[(dipropylamino)methyl]-1-piperidinyl}ethyl)-6-oxo-5,6-dihydro-11H-pyrido[2,3-b][1,4]benzodiazepine-11-carboxamide], for which the remaining activity at 1.25 µM in assay [1] (Well no.=5609, low concentration screen) is 101%. For the same compound, in assay [2] (Well no.=5609, high concentration screen), the remaining activity at 3.75 µM was determined as 101%.
On to `COc1ccc(S(=O)(=O)Nc2cc(Cl)cc(Cl)c2OC)cc1N1CCNCC1` [N-(3,5-dichloro-2-methoxyphenyl)-4-methoxy-3-(piperazin-1-yl)benzenesulfonamide hydrochloride], for which the remaining activity at 1.25 µM in assay [1] (Well no.=5561, low concentration screen) came out at 97.1%. For the same compound, in assay [2] (Well no.=5561, high concentration screen), the remaining activity at 3.75 µM was 103%.
In the case of `Nc1ccc(N2C(=O)c3ccccc3C2=O)c(Cl)c1` [N-(4-Amino-2-chlorophenyl)phthalimide], the remaining activity at 1.25 µM in assay [1] (Well no.=344, low concentration screen) was 95.3%. Also, in assay [2] (Well no.=344, high concentration screen), the remaining activity at 3.75 µM amounted to 96.5%.
For `NCCCCNS(=O)(=O)c1ccc2c(Cl)cccc2c1` [N-(4-Aminobutyl)-5-chloro-2-naphthalenesulfonamide hydrochloride], the remaining activity at 1.25 µM in assay [1] (Well no.=55, low concentration screen) is 104%. In addition, the remaining activity at 3.75 µM in assay [2] (Well no.=55, high concentration screen) turned out to be 106%.
With `COc1ccc2c(c1)c(CC(=O)Nc1ccc(NC(C)=O)cc1)c(C)n2C(=O)c1ccc(Cl)cc1` [N-(4-acetamidophenyl)indomethacinamide], in assay [1] (Well no.=343, low concentration screen), the remaining activity at 1.25 µM is 98.3%. In assay [2] (Well no.=343, high concentration screen), the remaining activity at 3.75 µM stood at 97.9%.
As for `CC(=O)NCCCCCN` [N-(5-Aminopentyl)acetamide], the remaining activity at 1.25 µM in assay [1] (Well no.=6155, low concentration screen) amounted to 98.4%. For the same compound, in assay [2] (Well no.=6155, high concentration screen), the remaining activity at 3.75 µM came to 89.4%.
Consider `COc1ccc(Cl)cc1NC(=O)Nc1cc(C)nc2ccccc12` [N-(5-Chloro-2-methoxyphenyl)-N'-(2-methyl-4-quinolinyl)urea], for which, in assay [1] (Well no.=2626, low concentration screen), the remaining activity at 1.25 µM came to 100%. Moreover, in assay [2] (Well no.=2626, high concentration screen), the remaining activity at 3.75 µM is 101%.
On to `C#CCNCc1cc2cc(OCc3ccccc3)ccc2[nH]1` [N-((5-(benzyloxy)-1H-indol-2-yl)methyl)prop-2-yn-1-amine], for which the remaining activity at 1.25 µM in assay [1] (Well no.=5630, low concentration screen) stood at 95.4%. In addition, the remaining activity at 3.75 µM in assay [2] (Well no.=5630, high concentration screen) was 96.5%.
Regarding `CC(=O)NCCc1c[nH]c2ccc(O)cc12` [N-Acetyl-5-hydroxytryptamine], the remaining activity at 1.25 µM in assay [1] (Well no.=201, low concentration screen) is 102%. Moreover, the remaining activity at 3.75 µM in assay [2] (Well no.=201, high concentration screen) came out at 103%.
Consider `CC(=O)N[C@@H](CS)C(=O)O` [N-Acetyl-Cysteine], for which the remaining activity at 1.25 µM in assay [1] (Well no.=4036, low concentration screen) was 97.8%. Moreover, the remaining activity at 3.75 µM in assay [2] (Well no.=4036, high concentration screen) was found to be 96.7%.
In the case of `CC(=O)N[C@@H]1[C@@H](O)[C@H](O)[C@@H](CO)O[C@@H]1O` [N-Acetyl-D-glucosamine], the remaining activity at 1.25 µM in assay [1] (Well no.=6881, low concentration screen) came to 100%. In addition, in assay [2] (Well no.=6881, high concentration screen), the remaining activity at 3.75 µM came to 95%.
As to `CC(=O)N[C@@H](CS)C(=O)O` [N-Acetyl-L-Cysteine], the remaining activity at 1.25 µM in assay [1] (Well no.=4, low concentration screen) worked out at 98.3%. The remaining activity at 3.75 µM in assay [2] (Well no.=4, high concentration screen) was 97.6%.
`CC(=O)N[C@@H](CC(=O)O)C(=O)O` [N-Acetyl-L-aspartic acid]: the remaining activity at 1.25 µM in assay [1] (Well no.=6645, low concentration screen) worked out at 98.3%; in assay [1] (Well no.=7690, low concentration screen), 101%. Also, the remaining activity at 3.75 µM in assay [2] (Well no.=6645, high concentration screen) was found to be 98.5%; in assay [2] (Well no.=7690, high concentration screen), 96.5%.
Turning to `CC(=O)N[C@@H](CC(C)C)C(=O)O` [N-Acetyl-L-leucine], the remaining activity at 1.25 µM in assay [1] (Well no.=7596, low concentration screen) worked out at 97%. Further, in assay [2] (Well no.=7596, high concentration screen), the remaining activity at 3.75 µM turned out to be 98.8%.
For `CC(=O)N[C@@H](Cc1ccc(O)cc1)C(=O)O` [N-Acetyl-L-tyrosine], the remaining activity at 1.25 µM worked out at 105% in assay [1] (Well no.=6677, low concentration screen) and 101% in assay [1] (Well no.=8704, low concentration screen). Further, the remaining activity at 3.75 µM in assay [2] (Well no.=6677, high concentration screen) is 104%; in assay [2] (Well no.=8704, high concentration screen), 99.9%.
On to `CCCCC/C=C\C\C=C/C=C/C=C/[C@@H](SCC(NC(C)=O)C(=O)O)[C@@H](O)CCCC(=O)O` (stereo partly drawn) [N-Acetyl-leukotriene E4], for which the remaining activity at 1.25 µM in assay [1] (Well no.=4435, low concentration screen) amounted to 101%. Also, the remaining activity at 3.75 µM in assay [2] (Well no.=4435, high concentration screen) stood at 102%.
As to `CC(=O)NCCc1ccc(O)c(O)c1` [N-Acetyldopamine monohydrate], in assay [1] (Well no.=56, low concentration screen), the remaining activity at 1.25 µM was determined as 98.3%. Also, in assay [2] (Well no.=56, high concentration screen), the remaining activity at 3.75 µM turned out to be 101%.
For `CC(=O)NCC(=O)O` [N-Acetylglycine], the remaining activity at 1.25 µM in assay [1] (Well no.=6779, low concentration screen) came out at 96.3%. The remaining activity at 3.75 µM in assay [2] (Well no.=6779, high concentration screen) is 96%.
Consider `CC(=O)N[C@H]1[C@H]([C@H](O)[C@H](O)CO)OC(O)(C(=O)O)C[C@@H]1O` (stereo partly drawn) [N-Acetylneuraminic acid], for which the remaining activity at 1.25 µM in assay [1] (Well no.=6491, low concentration screen) amounted to 92.4%. In addition, the remaining activity at 3.75 µM in assay [2] (Well no.=6491, high concentration screen) came to 94.5%.
Take `CC(=O)N[C@@H](CCCN)C(=O)O` [N-Acetylornithine]: the remaining activity at 1.25 µM came out at 102% in assay [1] (Well no.=7731, low concentration screen) and 99.4% in assay [1] (Well no.=8748, low concentration screen). The remaining activity at 3.75 µM in assay [2] (Well no.=7731, high concentration screen) was determined as 104%; in assay [2] (Well no.=8748, high concentration screen), 98.7%.
`CCN(CC)CCNC(=O)c1ccc(NC(C)=O)cc1` [N-Acetylprocainamide hydrochloride]: the remaining activity at 1.25 µM in assay [1] (Well no.=19, low concentration screen) was 104%. In addition, the remaining activity at 3.75 µM in assay [2] (Well no.=19, high concentration screen) worked out at 103%.
`CC(=O)NCCc1c[nH]c2ccccc12` [N-Acetyltryptamine]: in assay [1] (Well no.=100, low concentration screen), the remaining activity at 1.25 µM worked out at 97.2%. Moreover, the remaining activity at 3.75 µM in assay [2] (Well no.=100, high concentration screen) was determined as 96.6%.
As for `O=[N+]([O-])c1ccc(S(=O)(=O)NCc2ccccc2)c([N+](=O)[O-])c1` [N-Benzyl-2,4-dinitrobenzenesulfonamide], the remaining activity at 1.25 µM in assay [1] (Well no.=6125, low concentration screen) was found to be 98.4%. Further, the remaining activity at 3.75 µM in assay [2] (Well no.=6125, high concentration screen) came out at 102%.
`CC(=O)NBr` [N-Bromoacetamide]: the remaining activity at 1.25 µM in assay [1] (Well no.=171, low concentration screen) is 101%. Moreover, the remaining activity at 3.75 µM in assay [2] (Well no.=171, high concentration screen) was 98.1%.
As to `Clc1ccc2c(c1)N=C(N1CCNCC1)c1ccccc1N2` [N-Desmethylclozapine], in assay [1] (Well no.=7229, low concentration screen), the remaining activity at 1.25 µM was 100%. Besides, the remaining activity at 3.75 µM in assay [2] (Well no.=7229, high concentration screen) came to 98.9%.
Turning to `CCN1C(=O)C=CC1=O` [N-Ethylmaleimide], the remaining activity at 1.25 µM was determined as 102% in assay [1] (Well no.=461, low concentration screen) and 88.4% in assay [1] (Well no.=4101, low concentration screen). Further, the remaining activity at 3.75 µM worked out at 101% in assay [2] (Well no.=461, high concentration screen) and 95.8% in assay [2] (Well no.=4101, high concentration screen).
For `COc1cc2c(c(OC)c1OC)-c1ccc(OC)c(=O)cc1[C@@H](NC=O)CC2` [N-Formyl-Deacetylcolchicine], in assay [1], the remaining activity at 1.25 µM is 102%. Besides, the remaining activity at 3.75 µM in assay [2] worked out at 103%.
